Reference: patent US20150283120A1, “ANTIBIOTIC METHODS AND COMPOSITIONS FOR BACTERIA INFECTIONS” (THE UNIVERSITY OF CHICAGO, priority 2012, published 2015)
Structures can show the parent of a compound that is named as a salt.

Legend:
Format in all cases: cell-based, Staphylococcus aureus
[1] = tested on: vraR transcription; assay: Tertiary screen: qRT-PCR of vraR in strain 923; conditions: for Effect on vraSR Transcription: Compound alone: compound 10 μM, no oxacillin; for Effect on vraSR Transcription: With oxacillin: compound 10 μM + oxacillin 2 μg/mL; for classification of lux screen result against qRT-PCR (true/false repressor or stimulator): in the presence of oxacillin
[2] = tested on: vraSR transcription (Pvra::lux); conditions: compound 10 μM + oxacillin 2 μg/mL; for RL avg (relative luminescence): ratio of LU to oxacillin alone, four runs
Method: (§1) In the secondary screen each microtiter plate contained either cells in TSB alone (16 replicates), cells with oxacillin (2 μg/mL, 31 replicates), or cells with test compound and oxacillin (2 μg/mL, 49 wells). Each compound was assayed in four separate biological replicates.
(§2) All compounds classified in the primary screen as synergists that were vraSR-stimulating or -repressing (as shown in Table 8) were screened in a secondary assay for their effects on both growth and Pvra::lux induction by oxacillin. […] Each compound was tested four separate times at 10 μM in the presence of oxacillin (2 μg/mL) and luminescence was measured every 15 minutes. Relative growth (RG) and relative luminescence (RL) was calculated as the ratio between the OD600 or max LU value in the presence of compound and oxacillin over the average from pooled control values obtained from the same plate. […] Compounds that produced an average RG (ratio of the OD600 of the culture grown with test compound combined with oxacillin to that of oxacillin alone) of <0.8 were classified as oxacillin synergists or potentiators. The relative luminescence (RL) was the ratio of the LU produced in the presence of the test compound combined with oxacillin to that produced by oxacillin alone. Compounds were classified as “vraSR repressors” (mean RL of <0.8), “vraSR stimulators”, (mean RL>1.2), and “vraSR neutral” (mean RL between 0.80-1.2). […] In contrast, 34 compounds had no effect on growth in the presence of oxacillin (“un” in the OD600 category). Among the oxacillin potentiators, there were 2 vraSR stimulators, 3 vraSR neutral compounds and 10 vraSR repressors.

[3] = tested on: MRSA strain USA300 Pvra-lux; conditions: compound 10 μM + oxacillin 2 μg/mL; for RG avg (relative growth): ratio of OD600 to oxacillin alone, four runs
Method: as §1, §2

Row | Compound | Effect on vraSR Transcription: Compound alone ([1]; qRT-PCR of vraR) | Effect on vraSR transcription [2] | RL avg (relative luminescence) [2] | OD600 category [3] | RG avg (relative growth) [3] | Effect on vraSR Transcription: With oxacillin ([1]; qRT-PCR of vraR, hydrochloride) | classification of lux screen result against qRT-PCR (true/false repressor or stimulator) [1] | Effect on vraSR Transcription: With oxacillin ([1]; qRT-PCR of vraR) | Effect on vraSR transcription (summary) ([1]; qRT-PCR of vraR, alone and with oxacillin) | Effect on vraSR Transcription: With oxacillin ([1]; qRT-PCR of vraR, listed as fluspirilene)
1 | CC(=O)OCC1=C(C(=O)O)N2C(=O)[C@@H](NC(=O)Cc3cccs3)[C@H]2SC1 [Cephalothin sodium salt] | stimulate | neutral (“vraSR neutral” (mean RL between 0.80-1.2)) | 0.36 | inhibited (of <0.8 were classified as oxacillin synergists or potentiators) | 0.45 | – | – | – | – | –
2 | CN(C)CCn1nnnc1SCC1=C(C(=O)O)N2C(=O)[C@@H](NC(=O)Cc3csc(N)n3)[C@H]2SC1 [Cefotiam hydrochloride] | stimulate | neutral (“vraSR neutral” (mean RL between 0.80-1.2)) | 0.64 | inhibited (of <0.8 were classified as oxacillin synergists or potentiators) | 0.64 | vraR activator | – | – | – | –
3 | OC(Cn1cncn1)(Cn1cncn1)c1ccc(F)cc1F [fluconazole] | – | – | – | – | – | – | false stimulator | – | – | –
4 | CCCCc1oc2ccccc2c1C(=O)c1cc(I)c(OCCN(CC)CC)c(I)c1 [Amiodarone hydrochloride] | stimulate | stimulate (“vraSR stimulators”, (mean RL>1.2)) | 0.68 | inhibited (of <0.8 were classified as oxacillin synergists or potentiators) | 0.84 | – | – | – | – | –
5 | C#C[C@]1(O)CC[C@H]2[C@@H]3CCC4=CCCC[C@@H]4[C@H]3CC[C@@]21C [Lynestrenol] | stimulate | repress (“vraSR repressors” (mean RL of <0.8)) | 0.26 | inhibited (of <0.8 were classified as oxacillin synergists or potentiators) | 0.47 | – | – | – | – | –
6 | Spiramycin | None | repress (“vraSR repressors” (mean RL of <0.8)) | 0.31 | inhibited (of <0.8 were classified as oxacillin synergists or potentiators) | 0.43 | – | – | super-stimulate | – | –
7 | O=C1NCN(c2ccccc2)C12CCN(CCCC(c1ccc(F)cc1)c1ccc(F)cc1)CC2 [Fluspirilen] | none | stimulate (“vraSR stimulators”, (mean RL>1.2)) | 0.28 | inhibited (of <0.8 were classified as oxacillin synergists or potentiators) | 0.47 | – | – | vraR neutral | No effect | none
8 | CCN1CCN(C(=O)N[C@@H](C(=O)N[C@@H]2C(=O)N3C(C(=O)O)=C(CSc4nnnn4C)CS[C@H]23)c2ccc(O)cc2)C(=O)C1=O [Cefoperazone dihydrate] | stimulate | neutral (“vraSR neutral” (mean RL between 0.80-1.2)) | 0.77 | inhibited (of <0.8 were classified as oxacillin synergists or potentiators) | 0.79 | – | – | – | – | –
9 | N=C(N)NC(=O)Cc1c(Cl)cccc1Cl [Guanfacine hydrochloride] | – | neutral (“vraSR neutral” (mean RL between 0.80-1.2)) | 0.79 | un (no effect on growth in the presence of oxacillin (“un” in the OD600 category)) | 0.88 | – | – | – | – | –
10 | CCN(CC)CCOc1ccc(C(=C(Cl)c2ccccc2)c2ccccc2)cc1 (racemic) [Clomiphene citrate (Z,E), 2-(4-(2-chloro-1,2-diphenylethenyl)phenoxy)-N,N-diethyl-ethanamine] | – | repress (“vraSR repressors” (mean RL of <0.8)) | 0.39 | inhibited (of <0.8 were classified as oxacillin synergists or potentiators) | 0.68 | – | – | – | – | –
11 | O=C(CCCN1CC=C(n2c(=O)[nH]c3ccccc32)CC1)c1ccc(F)cc1 [Droperidol] | – | neutral (“vraSR neutral” (mean RL between 0.80-1.2)) | 0.91 | un (no effect on growth in the presence of oxacillin (“un” in the OD600 category)) | 1.02 | – | – | – | – | –
12 | CN(C)CCOC(=O)COc1ccc(Cl)cc1 [Meclofenoxate hydrochloride] | – | neutral (“vraSR neutral” (mean RL between 0.80-1.2)) | 1.08 | un (no effect on growth in the presence of oxacillin (“un” in the OD600 category)) | 1.08 | – | – | – | – | –
13 | COc1cccc2c1C(=O)c1c(O)c3c(c(O)c1C2=O)C[C@@](O)(C(=O)CO)C[C@@H]3O[C@H]1C[C@H](N)[C@H](O)[C@H](C)O1 [Doxorubicin hydrochloride] | – | repress (“vraSR repressors” (mean RL of <0.8)) | 0.83 | un (no effect on growth in the presence of oxacillin (“un” in the OD600 category)) | 0.88 | – | – | – | – | –
14 | CC1(C)S[C@@H]2[C@H](NC(=O)[C@H](NC(=O)N3CCNC3=O)c3ccccc3)C(=O)N2[C@H]1C(=O)O [Azlocillin sodium salt] | – | neutral (“vraSR neutral” (mean RL between 0.80-1.2)) | 0.78 | un (no effect on growth in the presence of oxacillin (“un” in the OD600 category)) | 0.91 | – | – | – | – | –
15 | CC1CS(=O)(=O)CCN1/N=C/c1ccc([N+](=O)[O-])o1 (stereo not shown) [Nifurtimox] | – | repress (“vraSR repressors” (mean RL of <0.8)) | 0.95 | un (no effect on growth in the presence of oxacillin (“un” in the OD600 category)) | 0.97 | – | – | – | – | –
16 | CO[C@H]1C[C@H](O[C@H]2[C@H](C)[C@@H](O[C@@H]3O[C@H](C)C[C@H](N(C)C)[C@H]3O)[C@@H](C)C[C@@]3(CO3)C(=O)[C@H](C)[C@@H](O)[C@@H](C)[C@@H](C)OC(=O)[C@@H]2C)O[C@@H](C)[C@@H]1O [Oleandomycin phosphate, (3R,5R,6S,7R,8R,11R,12S,13R,14S,15S)-14-((2S,3R,4S,6R)-4-(dimethylamino)-3-hydroxy-6-methyltetrahydro-2H-pyran-2-yloxy)-6-hydroxy-12-((2R,4S,5S,6S)-5-hydroxy-4-methoxy-6-methyltetrahydro-2H-pyran-2-yloxy)-5,7,8,11,13,15-hexamethyl-1,9-dioxaspiro[2.13]hexadecane-4,10-dione] | – | repress (“vraSR repressors” (mean RL of <0.8)) | 0.20 | inhibited (of <0.8 were classified as oxacillin synergists or potentiators) | 0.19 | – | true vraSR expression repressors | repress | – | –
17 | O=C(c1ccc(OCCN2CCCCC2)cc1)c1c(-c2ccc(O)cc2)sc2cc(O)ccc12 [Raloxifene hydrochloride] | – | neutral (“vraSR neutral” (mean RL between 0.80-1.2)) | 0.85 | un (no effect on growth in the presence of oxacillin (“un” in the OD600 category)) | 0.97 | – | – | – | – | –
18 | C[n+]1cc2c3c(ccc2c2ccc4cc5c(cc4c21)OCO5)OCO3 [Sanguinarine] | – | repress (“vraSR repressors” (mean RL of <0.8)) | 0.47 | inhibited (of <0.8 were classified as oxacillin synergists or potentiators) | 0.78 | – | – | – | – | –
19 | O=C1c2c(O)ccc(O)c2C(=O)c2c(NCCNCCO)ccc(NCCNCCO)c21 [Mitoxantrone dihydrochloride] | – | neutral (“vraSR neutral” (mean RL between 0.80-1.2)) | 0.83 | un (no effect on growth in the presence of oxacillin (“un” in the OD600 category)) | 0.94 | – | – | – | – | –
20 | O=c1[nH]c2ccccc2n1CCCN1CCC(n2c(=O)[nH]c3cc(Cl)ccc32)CC1 [Domperidone] | – | neutral (“vraSR neutral” (mean RL between 0.80-1.2)) | 0.85 | un (no effect on growth in the presence of oxacillin (“un” in the OD600 category)) | 0.91 | – | – | – | – | –
